Read-outs that look alike come from different tables or passages of the source.
Experiments:
[1] = target: T1, Lp-PLA2 in human serum (Homo sapiens, UniProt Q13093); assay: In vitro inhibitory activity towards the enzyme Lp-PLA2 in human serum, [3H]PAF substrate; assay type: biochemical; settings: 10 nM
T1 construct: from tissue
T1 sequence (Q13093 22-441): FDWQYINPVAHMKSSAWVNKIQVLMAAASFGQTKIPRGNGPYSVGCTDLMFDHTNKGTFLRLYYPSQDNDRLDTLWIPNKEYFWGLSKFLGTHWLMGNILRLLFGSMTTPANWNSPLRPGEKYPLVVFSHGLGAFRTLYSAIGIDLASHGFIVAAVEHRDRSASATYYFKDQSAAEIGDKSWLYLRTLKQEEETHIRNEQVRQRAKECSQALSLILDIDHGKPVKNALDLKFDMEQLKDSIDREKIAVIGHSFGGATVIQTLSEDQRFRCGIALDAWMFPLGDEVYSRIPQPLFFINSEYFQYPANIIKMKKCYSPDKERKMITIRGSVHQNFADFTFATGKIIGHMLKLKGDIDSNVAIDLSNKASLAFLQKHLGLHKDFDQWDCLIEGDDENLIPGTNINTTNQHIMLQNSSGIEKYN
Summary of the method: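 Human plasma was preincubated with compound 10 min at 37 °C in 50 mM HEPES, 150 mM NaCl, pH 7.4. Reaction started with 20 nM [3H]PAF, run 10 min at 37 °C, then extracted with CHCl3/MeOH (2:1); radioactivity of the supernatant was counted.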

[2] = target: T2, Lp-PLA2 in rabbit serum (Oryctolagus cuniculus, UniProt G1SE06); assay: In vitro inhibitory activity towards the enzyme Lp-PLA2 in rabbit serum, [3H]PAF substrate; assay type: biochemical; settings: 100 nM
T2 construct: from tissue; host or cells: rabbit serum
T2 sequence (G1SE06 22-423): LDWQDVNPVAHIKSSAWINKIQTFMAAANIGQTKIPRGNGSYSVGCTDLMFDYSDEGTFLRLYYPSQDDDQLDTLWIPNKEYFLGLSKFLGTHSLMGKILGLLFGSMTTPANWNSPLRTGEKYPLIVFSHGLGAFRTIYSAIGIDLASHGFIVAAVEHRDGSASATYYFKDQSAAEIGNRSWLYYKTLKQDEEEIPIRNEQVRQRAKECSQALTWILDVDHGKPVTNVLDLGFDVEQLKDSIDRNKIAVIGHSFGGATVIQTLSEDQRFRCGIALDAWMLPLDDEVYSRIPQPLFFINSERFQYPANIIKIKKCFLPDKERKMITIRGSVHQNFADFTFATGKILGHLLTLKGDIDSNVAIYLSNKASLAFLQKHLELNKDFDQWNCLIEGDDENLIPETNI

[3] = test system: atherosclerotic plaque; settings: diabetic/hypercholesterolemic swine, Wilensky et al.; cited from earlier work
[4] = human serum, read-out: inhibition, %
[5] = rabbit serum, read-out: inhibition, %
[6] = read-out: inhibitory rate towards the human serum derived Lp-PLA2 enzyme
[7] = read-out: inhibitory rate towards the rabbit serum derived Lp-PLA2 enzyme

inhibition at 0.01 µM [1, 4] [%] | inhibition at 0.1 µM [2, 5] [%] | inhibition at 0.01 µM [1, 6] [%] | inhibition at 0.1 µM [2, 7] [%] | Structure (SMILES) | atherosclerotic plaque progression [3]
100 | 97 | > 80 | > 90 | CCN(CC)CCN(C)Cc1onc(Cn2c(SCc3ccc(F)cc3)nc(=O)c3c2CCC3)c1Cc1ccc(-c2ccc(C(F)(F)F)cc2)cc1 [Example 159, 1-((5-(((2-(diethylamino)ethyl)(methyl)amino)methyl)-4-((4′-(trifluoromethyl)biphenyl-4-yl)methyl)isoxazol-3-yl)methyl)-2-(4-fluorobenzylthio)-6,7-dihydro-1H-cyclopenta[d]pyrimidin-4(5H)-one] | –
100 | 99 | > 80 | > 90 | CN(CCN1CCCCC1)Cc1onc(Cn2c(SCc3ccc(F)cc3)nc(=O)c3c2CCC3)c1Cc1ccc(-c2ccc(C(F)(F)F)cc2)cc1 [Example 161, 2-(4-fluorobenzylthio)-1-((5-((methyl(2-(piperidin-1-yl)ethyl)amino)methyl)-4-((4′-(trifluoromethyl)biphenyl-4-yl)methyl)isoxazol-3-yl)methyl)-6,7-dihydro-1H-cyclopenta[d]pyrimidin-4(5H)-one] | –

More lines, now with the values behind:

Structure (SMILES) | inhibition at 0.01 µM [1, 4] [%] | inhibition at 0.1 µM [2, 5] [%] | inhibition at 0.01 µM [1, 6] [%] | inhibition at 0.1 µM [2, 7] [%] | atherosclerotic plaque progression [3]
CCN(CC)Cc1onc(Cn2c(SCc3ccc(F)cc3)nc(=O)c3c2CCC3)c1Cc1ccc(-c2ccc(C(F)(F)F)cc2)cc1 [Example 157, 1-((5-((diethylamino)methyl)-4-((4′-(trifluoromethyl)biphenyl-4-yl)methyl)isoxazol-3-yl)methyl)-2-(4-fluorobenzylthio)-6,7-dihydro-1H-cyclopenta[d]pyrimidin-4(5H)-one] | 96 | 89 | – | – | –
CN(C)CCN(C)Cc1onc(Cn2c(SCc3ccc(F)cc3)nc(=O)c3c2CCC3)c1Cc1ccc(-c2ccc(C(F)(F)F)cc2)cc1 [Example 158, 1-((5-(((2-(dimethylamino)ethyl)(methyl)amino)methyl)-4-((4′-(trifluoromethyl)biphenyl-4-yl)methyl)isoxazol-3-yl)methyl)-2-(4-fluorobenzylthio)-6,7-dihydro-1H-cyclopenta[d]pyrimidin-4(5H)-one] | 98 | 98 | > 80 | > 90 | –
CCN(CC)CCN(Cc1ccc(-c2ccc(C(F)(F)F)cc2)cc1)C(=O)Cn1c(SCc2ccc(F)cc2)nc(=O)c2c1CCC2 [darapladib, Darapladib] | – | – | – | – | remarkably reduced the atherosclerotic plaque progression
